Data: patent publication US9926297B2, “Bicyclic AZA compounds as muscarinic M1 receptor and/or M4 receptor agonists” (Heptares Therapeutics Limited, priority 2014, dated 2018)

How the values were obtained:
[1] = biological target: T1, human muscarinic M2 receptor (Homo sapiens, UniProt P08172); test: Alphascreen Surefire phospho-ERK1/2 functional assay, M2; conditions: for Emax: CHO, read-out: % Emax cf. ACh, M2, CHO cells stably expressing human M2
T1 sequence (P08172 1-466): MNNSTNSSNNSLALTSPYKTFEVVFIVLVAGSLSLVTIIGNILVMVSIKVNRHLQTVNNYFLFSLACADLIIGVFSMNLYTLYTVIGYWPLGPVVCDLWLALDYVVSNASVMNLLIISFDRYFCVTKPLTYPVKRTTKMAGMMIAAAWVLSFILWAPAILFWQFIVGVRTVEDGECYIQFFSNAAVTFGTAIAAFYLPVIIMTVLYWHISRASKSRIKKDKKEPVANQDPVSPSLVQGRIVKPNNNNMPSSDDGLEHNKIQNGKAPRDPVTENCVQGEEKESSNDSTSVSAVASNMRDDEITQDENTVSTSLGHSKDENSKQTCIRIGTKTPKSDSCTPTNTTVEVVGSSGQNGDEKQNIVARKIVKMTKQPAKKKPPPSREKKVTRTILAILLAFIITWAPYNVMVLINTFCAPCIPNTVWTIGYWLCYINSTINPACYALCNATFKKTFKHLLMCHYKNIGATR

[2] = biological target: T2, human muscarinic M1 receptor (Homo sapiens, UniProt P11229); test: Alphascreen Surefire phospho-ERK1/2 functional assay, M1; assay type: cell-based; conditions: for EC50 / % Emax cf. ACh, M1: CHO cells stably expressing human M1; for EC50: phospho-ERK1/2, * = variable results, read-out: pEC50 M1 (converted); for Emax: CHO, read-out: % Emax cf. ACh, M1, CHO cells stably expressing human M1; for Emax / % Emax cf. ACh, M1: relative to ACh
T2 sequence (P11229 1-460): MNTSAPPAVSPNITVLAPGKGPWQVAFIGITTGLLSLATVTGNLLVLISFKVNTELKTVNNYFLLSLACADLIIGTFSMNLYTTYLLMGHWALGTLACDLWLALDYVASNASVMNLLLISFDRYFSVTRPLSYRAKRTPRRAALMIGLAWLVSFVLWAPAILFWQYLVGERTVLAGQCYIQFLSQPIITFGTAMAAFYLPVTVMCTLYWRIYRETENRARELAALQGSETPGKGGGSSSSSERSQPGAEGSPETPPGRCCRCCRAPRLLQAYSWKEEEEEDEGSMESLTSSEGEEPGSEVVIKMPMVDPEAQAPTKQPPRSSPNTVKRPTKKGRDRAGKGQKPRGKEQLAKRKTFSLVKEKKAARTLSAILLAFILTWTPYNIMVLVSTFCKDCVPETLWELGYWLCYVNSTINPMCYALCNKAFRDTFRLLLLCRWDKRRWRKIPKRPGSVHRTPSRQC

[3] = biological target: human muscarinic M3 receptor (Homo sapiens, UniProt P20309); test: Alphascreen Surefire phospho-ERK1/2 functional assay, M3; conditions: for Emax: CHO, read-out: % Emax cf. ACh, M3, CHO cells stably expressing human M3; for EC50: pEC50 M3, CHO cells stably expressing human M3, phospho-ERK1/2, * = variable results
Chain of human muscarinic M3 receptor (P20309 whole entry): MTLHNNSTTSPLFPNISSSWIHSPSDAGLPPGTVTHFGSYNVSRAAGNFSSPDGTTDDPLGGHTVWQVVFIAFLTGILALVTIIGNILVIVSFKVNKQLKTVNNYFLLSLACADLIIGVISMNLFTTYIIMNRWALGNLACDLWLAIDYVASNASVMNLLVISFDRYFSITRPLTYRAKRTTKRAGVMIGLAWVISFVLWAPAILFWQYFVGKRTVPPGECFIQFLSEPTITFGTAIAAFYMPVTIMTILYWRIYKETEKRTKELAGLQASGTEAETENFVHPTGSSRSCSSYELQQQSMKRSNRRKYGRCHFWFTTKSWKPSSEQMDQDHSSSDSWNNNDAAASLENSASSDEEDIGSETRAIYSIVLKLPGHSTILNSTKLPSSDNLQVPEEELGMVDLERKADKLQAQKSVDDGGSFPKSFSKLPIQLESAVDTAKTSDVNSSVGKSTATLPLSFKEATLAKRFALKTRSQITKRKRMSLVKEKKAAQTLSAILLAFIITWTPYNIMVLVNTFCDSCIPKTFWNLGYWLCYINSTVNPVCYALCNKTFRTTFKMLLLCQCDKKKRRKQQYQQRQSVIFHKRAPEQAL

[4] = biological target: T3, human muscarinic M4 receptor (Homo sapiens, UniProt P08173); test: Alphascreen Surefire phospho-ERK1/2 functional assay, M4; assay type: cell-based; conditions: for EC50 / % Emax cf. ACh, M4: CHO cells stably expressing human M4; for EC50: phospho-ERK1/2, * = variable results, read-out: pEC50 M4 (converted); for Emax: CHO, read-out: % Emax cf. ACh, M4, CHO cells stably expressing human M4; for Emax / % Emax cf. ACh, M4: relative to ACh
T3 construct: expressed in transfected cells
T3 sequence (P08173 1-479): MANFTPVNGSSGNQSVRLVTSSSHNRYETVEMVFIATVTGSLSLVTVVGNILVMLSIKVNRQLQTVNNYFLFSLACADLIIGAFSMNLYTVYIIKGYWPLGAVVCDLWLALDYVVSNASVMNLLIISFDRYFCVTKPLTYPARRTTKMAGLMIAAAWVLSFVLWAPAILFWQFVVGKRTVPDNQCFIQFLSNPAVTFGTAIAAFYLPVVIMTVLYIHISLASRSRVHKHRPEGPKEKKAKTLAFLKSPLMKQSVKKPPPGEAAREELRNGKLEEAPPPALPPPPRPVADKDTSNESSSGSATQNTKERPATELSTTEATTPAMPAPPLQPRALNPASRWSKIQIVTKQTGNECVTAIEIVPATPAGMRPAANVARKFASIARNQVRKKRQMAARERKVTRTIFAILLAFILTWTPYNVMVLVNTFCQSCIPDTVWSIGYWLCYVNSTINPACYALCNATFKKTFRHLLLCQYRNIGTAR

| EC50 [1] | Emax ([1]; relative to ACh) | EC50 [2] | Emax [2] | Emax ([3]; relative to ACh) | EC50 [3] | EC50 [4] | Emax [4] | % Emax cf. ACh, M1 [2] | % Emax cf. ACh, M4 [4] | % Emax cf. ACh, M2 ([1]; CHO cells stably expressing human M2, relative to ACh) | % Emax cf. ACh, M3 ([3]; CHO cells stably expressing human M3, relative to ACh) | SMILES |
| --- | --- | --- | --- | --- | --- | --- | --- | --- | --- | --- | --- | --- |
| > 20000 nM | 4% | 251 nM | 63% | 2% | > 20000 nM | 25.1 nM | 73% | – | – | – | – | CCOC(=O)N1CCC2(CC(N3CCC([C@@H]4CCCN4C(=O)OCCOC)CC3)C2)C1 (single isomer, unassigned) [2-50 Isomer 2] |
| > 20000 nM | 1% | 1580 nM | – | 3% | > 20000 nM | 31.6 nM | – | 93% | 111% | – | – | CCOC(=O)N1CCC2(CC(N3CCC([C@@H]4CCCN4CCC(F)(F)F)CC3)C2)C1 (single isomer, unassigned) [2-70 Isomer 2] |
| > 20000 nM | 1% | 158 nM | 110% | 2% | > 20000 nM | 5.01 nM | 115% | – | – | – | – | CCOC(=O)N1CCC2(CC(N3CCC([C@@H]4CCCN4C(=O)NC4CC(F)(F)C4)CC3)C2)C1 (single isomer, unassigned) [2-38 Isomer 2] |
| > 20000 nM | – | > 20000 nM | – | – | > 20000 nM | 15.8 nM | – | 1% | 45% | 50% | 0% | CCOC(=O)N1CCC2(CC(N3CCC([C@@H]4CCCN4C(=O)NCc4ccccn4)CC3)C2)C1 (single isomer, unassigned) [2-54 Isomer 1] |
| > 20000 nM | 3% | 126 nM | 65% | 56% | > 20000 nM | 50.1 nM | 89% | – | – | – | – | CCOC(=O)N1CCC2(CC(N3CCC(c4ccn[nH]4)CC3)C2)C1 (single isomer, unassigned) [1-18 Isomer 2, ethyl 2-[4-(1H-pyrazol-5-yl)piperidin-1-yl]-6-azaspiro[3.4]octane-6-carboxylate] |
| > 20000 nM | 3% | 316 nM | 34% | 5% | > 20000 nM | 10 nM | 81% | – | – | – | – | CCOC(=O)N1CCC2(CC(N3CCC([C@@H]4CCCN4C(=O)OCC(F)(F)F)CC3)C2)C1 (single isomer, unassigned) [2-48 Isomer 2] |
| > 20000 nM | 9% | 398 nM | 72% | 9% | > 20000 nM | 15.8 nM | 111% | – | – | – | – | CNC(=O)N1CCC[C@H]1C1CCN(C2CC3(CCN(C(=O)OC)C3)C2)CC1 (single isomer, unassigned) [2-15 Isomer 2] |
| > 20000 nM | 1% | > 20000 nM | 8% | 4% | > 20000 nM | 79.4 nM | 56% | – | – | – | – | CCOC(=O)N1CCC2(CC(N3CCC([C@H]4CCCN4C(=O)NC)CC3)C2)C1 (single isomer, unassigned) [2-18 Isomer 2] |
| > 20000 nM | 2% | 3160 nM | 50% | 5% | > 20000 nM | 31.6 nM | 82% | – | – | – | – | CCOC(=O)N1CCC2(CC(N3CCC(N4CC(F)(F)C[C@@H]4C(=O)N(C)OC)CC3)C2)C1 (single isomer, unassigned) [2-92 Isomer 2] |
| > 20000 nM | 4% | 158 nM | 54% | 1% | > 20000 nM | 12.6 nM | 53% | – | – | – | – | CCOC(=O)N1CCC2(CC(N3CCC(N4CC(F)(F)C[C@@H]4C(N)=O)CC3)C2)C1 (single isomer, unassigned) [2-90 Isomer 2] |
| > 20000 nM | 13% | 794 nM | 41% | 27% | 7940 nM | 12.6 nM | 100% | – | – | – | – | CCOC(=O)N1CCC2(CC(N3CCC([C@@H]4CCCN4C(=O)CC)CC3)C2)C1 (single isomer, unassigned) [2-7 Isomer 2] |
